Like-named read-outs stand apart in the source and are kept apart here.
Tests used:
Assay type in all cases: in vivo
Matricaria chamomilla [1] = assay: Germination test of seeds (Petri dish); details: M.c., seeds in Petri dish, 28 °C, 14 days
Experimental: (§1) Two sheets of filter paper were placed in a superposed relation in each of Petri dishes having a diameter of 9 cm. Water suspensions of each test compound (concentrations of the active ingredient: 0.25 ppm and 2.5 ppm) were separately poured in an amount of 6ml per dish into the Petri dishes. Seeds of Amaranthus retroflexus, (Redroot pigweed), Bidens pilosa (Common blackjack), Matricaria chamomilla (Wild chamomile), Solanum nigrum (Black nightshade), Echinochloa crus-galli(Barnyard grass), Cyperus iria (Rice flatsedge) and Setaria viridis (Green foxtail) were placed at a rate of 10 seeds per dish in the Petri dishes. They were thereafter allowed to germinate in a constant-temperature chamber at 28 °C. Fourteen days later after placement in the Petri dishes, the degrees of germination and growth inhibition were observed visually. The observation results were ranked in accordance with the below-described 6-stage system.

Echinochloa crus-galli = assay: Germination test of seeds (Petri dish); details: E.c., seeds in Petri dish, 28 °C, 14 days
Experimental: as §1

Solanum nigrum [2] = assay: Germination test of seeds (Petri dish); details: S.n., seeds in Petri dish, 28 °C, 14 days
Experimental: as §1

Amaranthus retroflexus [3] = assay: Germination test of seeds (Petri dish); details: A.r., seeds in Petri dish, 28 °C, 14 days
Experimental: as §1

Cyperus iria = assay: Germination test of seeds (Petri dish); details: C.i., seeds in Petri dish, 28 °C, 14 days
Experimental: as §1

Setaria viridis [4] = assay: Germination test of seeds (Petri dish); details: S.v., seeds in Petri dish, 28 °C, 14 days
Experimental: as §1

Bidens pilosa [5] = assay: Germination test of seeds (Petri dish); details: B.p., seeds in Petri dish, 28 °C, 14 days
Experimental: as §1

Galium aparine = assay: Test for selective herbicidal effect in post-emergence by treatment of stalks and leaves; details: 1 - to 2 - leaf stage, 21 days
Experimental: (§2) Wheat and the weed were reared from seeds in the planters in a glasshouse. When the young plants had reached the 1 - to 2 - leaf stage, the wettable powders prepared in the same manner as Preparation Example 1 described above were diluted with water to a prescribed concentration and sprayed uniformly to the stalks arid leaves of the plants and on the soil surface in the planters by a spray gun so that the acrive ingredient would be applied at a rate of 5 g/ha and 50 g/ha. Then the planters were kept in the glasshouse. Twenty-one days after said treatment, the herbicidal effect of the compositions on the weeds and phytotoxicity of the crops were observed and evaluated according to the following ratings.

Wheat = tested on: Wheat; design: key: 0: no inhibition; less than 31%; 2: 31 - 50%; 3: 51 - 70%; 4: 71 - 90%; 5: 91 - 100%; details: 1 - to 2 - leaf stage, 21 days
Experimental: as §2

Matricaria chamomilla [6] = assay: Test on herbicidal activity by foliar application; details: M.c; 50 g/ha foliar spray, 2 - 4 leaf stage, 14 days
From the text: (§3) Herbicidal solutions of each test compound, which had been prepared by dissolving at predetermined concentrations such as wettable powder of the test compound as that described in the above formulation example, and sprayed at dosages of 5 g/ha and 50 g/ha over foliar parts of Amaranthus retroflexus, (Redroot pigweed), Bidens pilosa (Common blackjack), Sinapis arvensis (Wild mustard), Stellaria media (Common chickweed), Cassia obtusifolia (Sicklepod), Solanum nigrum (Black nightshade), Abutilon theophrasti (Velvetleaf), Convolvulus arvensis (Field bindweed), Matricaria chamomilla (Wild chamomile), Setaria viridis (Green foxtail), Echinochloa frumentaceum (Barnyard grass), Avena fatua (Wild oat), and Digitaria adscendens (Henry crabgrass) which had been allowed to grow individually to 2 - 4 leaf stage in pots. Fourteen days later after spraying of the test compound, its herbicidal acrivity was evaluated in accordance with the below-described system.
(§4) 0: no effects 1: less than 30% of total kill 2: 31 - 50% of total kill 3: 51 - 70% of total kill 4: 71 - 90% of total kill 5: 91 - 100% of total kill.

Digitaria adscendens = assay: Test on herbicidal activity by foliar application; details: D.a.; 50 g/ha foliar spray, 2 - 4 leaf stage, 14 days
From the text: as §3, §4

Abutilon theophrasti = assay: Test on herbicidal activity by foliar application; details: A.t; 50 g/ha foliar spray, 2 - 4 leaf stage, 14 days
From the text: as §3, §4

Avena fatua = assay: Test on herbicidal activity by foliar application; details: A.f.; 50 g/ha foliar spray, 2 - 4 leaf stage, 14 days
From the text: as §3, §4

Stellaria media = assay: Test on herbicidal activity by foliar application; details: S.m.; 50 g/ha foliar spray, 2 - 4 leaf stage, 14 days
From the text: as §3, §4

Sinapis arvensis = assay: Test on herbicidal activity by foliar application; details: S.a.; 50 g/ha foliar spray, 2 - 4 leaf stage, 14 days
From the text: as §3, §4

Solanum nigrum [7] = assay: Test on herbicidal activity by foliar application; details: S.n; 50 g/ha foliar spray, 2 - 4 leaf stage, 14 days
From the text: as §3, §4

Amaranthus retroflexus [8] = assay: Test on herbicidal activity by foliar application; details: A.r; 50 g/ha foliar spray, 2 - 4 leaf stage, 14 days
From the text: as §3, §4

Convolvulus arvensis = assay: Test on herbicidal activity by foliar application; details: C.a.; 50 g/ha foliar spray, 2 - 4 leaf stage, 14 days
From the text: as §3, §4

Setaria viridis [9] = assay: Test on herbicidal activity by foliar application; details: S.v.; 50 g/ha foliar spray, 2 - 4 leaf stage, 14 days
From the text: as §3, §4

Echinochloa frumentaceum = assay: Test on herbicidal activity by foliar application; details: E.f.; 50 g/ha foliar spray, 2 - 4 leaf stage, 14 days
From the text: as §3, §4

Bidens pilosa [10] = assay: Test on herbicidal activity by foliar application; details: B.p; 50 g/ha foliar spray, 2 - 4 leaf stage, 14 days
From the text: as §3, §4

Cassia obtusifolia = assay: Test on herbicidal activity by foliar application; details: C.o.; 50 g/ha foliar spray, 2 - 4 leaf stage, 14 days
From the text: as §3, §4

CC=NNc1ccc(C(=O)OC)c(S(=O)(=O)NC(=O)Nc2nc(OC)nc(OC)n2)c1 [Compound I-1]
2 (31 - 50% of total kill): Herbicidal activity (Avena fatua)
5 (91 - 100% of total kill): Herbicidal activity (Matricaria chamomilla [6]) | Herbicidal activity (Abutilon theophrasti) | Herbicidal activity (Stellaria media) | Herbicidal activity (Sinapis arvensis) | Herbicidal activity (Solanum nigrum [7]) | Herbicidal activity (Amaranthus retroflexus [8]) | Herbicidal activity (Convolvulus arvensis) | Herbicidal activity (Bidens pilosa [10]) | Herbicidal activity (Cassia obtusifolia)
3 (51 - 70%): Growth inhibition rate (Echinochloa crus-galli; 2.5 ppm) | Growth inhibition rate (Solanum nigrum [2]; 2.5 ppm) | Growth inhibition rate (Amaranthus retroflexus [3]; 0.25 ppm) | Growth inhibition rate (Setaria viridis [4]; 0.25 ppm) | Growth inhibition rate (Bidens pilosa [5]; 0.25 ppm)
4 (71 - 90%): Growth inhibition rate (Matricaria chamomilla [1]; 2.5 ppm) | Growth inhibition rate (Cyperus iria; 2.5 ppm) | Growth inhibition rate (Setaria viridis [4]; 2.5 ppm) | Growth inhibition rate (Bidens pilosa [5]; 2.5 ppm)
4 (71 - 90% of total kill): Herbicidal activity (Digitaria adscendens)
0: Growth inhibition rate (phytotoxicity of the crops) (Wheat; 5 g/ha post-emergence spray) | Growth inhibition rate (phytotoxicity of the crops) (Wheat; 50 g/ha post-emergence spray)
5 (91 - 100%): Growth inhibition rate (Amaranthus retroflexus [3]; 2.5 ppm) | Growth inhibition rate (herbicidal effect) (Galium aparine; 5 g/ha post-emergence spray) | Growth inhibition rate (herbicidal effect) (Galium aparine; 50 g/ha post-emergence spray)
3 (51 - 70% of total kill): Herbicidal activity (Setaria viridis [9]) | Herbicidal activity (Echinochloa frumentaceum)
2 (31 - 50%): Growth inhibition rate (Matricaria chamomilla [1]; 0.25 ppm) | Growth inhibition rate (Echinochloa crus-galli; 0.25 ppm) | Growth inhibition rate (Solanum nigrum [2]; 0.25 ppm) | Growth inhibition rate (Cyperus iria; 0.25 ppm)
